Results reported in patent US20220362249A1, “METHODS FOR TREATING […]” (PTC Therapeutics MP, Inc., priority 2019, published 2022).
Read-outs that look alike come from different tables or passages of the source.

What was measured:
[1] = Food effect on administration of sepiapterin: plasma sepiapterin and BH4 concentrations, fasted vs fed; assay type: in vivo, human; conditions: sepiapterin 10 mg/kg oral; for concentration at 0 h / concentration at 0.5 h / concentration at 1 h / concentration at 2 h / concentration at 4 h / concentration at 8 h / concentration at 12 h / concentration at 24 h: human, oral, 10 mg/kg; for concentration at 0 h: 0 h (predose)
Experimental: Method: Subjects received 2 oral doses of sepiapterin (10 mg/kg) separated by 1 week in a fasted and fed state. Subjects were fed a standard high-fat (approximately 50 percent of total caloric content of the meal) and high-calorie (approximately 800 to 1000 calories) meal starting 30 minutes prior to receiving their second oral dose of sepiapterin on Day 8.
Sampling for PK analysis occurred predose on Days 1 and 8 (within 30 minutes before dosing) and 0.5 hr, 1 hr, 2 hr, 4 hr, 8 hr, 12 hr, and 24 hr after the doses on Days 1 and 8. The blood concentrations of sepiapterin and BH4 were analyzed by MNG Labs.

[2] = Pharmacokinetic analysis of multiple doses of sepiapterin (once daily for 7 days, fed subjects); assay type: in vivo, human; conditions: human, plasma, fed; for AUC(0-t): read-out: AUC0-24; for Cmax: read-out: Cmax
Description: Methods: Three cohorts of eight fed subjects each were randomized to receive once-daily sepiapterin or placebo for 7 days in a 6:2 ratio. A sentinel dose strategy was also used for administration of the highest sepiapterin dose.

[3] = plasma, fasted, read-out: Concentration in Plasma, Maximum
[4] = plasma, fasted, read-out: Concentration in Plasma, Mean
[5] = plasma, fasted, read-out: Concentration in Plasma, Median
[6] = plasma, fasted, read-out: Concentration in Plasma, Minimum
[7] = plasma, fed (high-fat meal), read-out: Concentration in Plasma, Maximum
[8] = plasma, fed (high-fat meal), read-out: Concentration in Plasma, Mean
[9] = plasma, fed (high-fat meal), read-out: Concentration in Plasma, Median
[10] = plasma, fed (high-fat meal), read-out: Concentration in Plasma, Minimum
[11] = 5 mg/kg, Day 1, sepiapterin 5 mg/kg once daily
[12] = 5 mg/kg, Day 7, sepiapterin 5 mg/kg once daily
[13] = 20 mg/kg, Day 1, sepiapterin 20 mg/kg once daily
[14] = 20 mg/kg, Day 7, sepiapterin 20 mg/kg once daily
[15] = 60 mg/kg, Day 1, sepiapterin 60 mg/kg once daily
[16] = 60 mg/kg, Day 7, sepiapterin 60 mg/kg once daily

Structure (SMILES): C[C@H](O)[C@H](O)[C@H]1CNc2nc(N)[nH]c(=O)c2N1 [BH4, Tetrahydrobiopterin]
- concentration at 0 h [1, 3]: 9 nM
- concentration at 0 h [1, 4]: 7.62 nM
- concentration at 0 h [1, 5]: 7.75 nM
- concentration at 0 h [1, 6]: 5 nM
- concentration at 0.5 h [1, 3]: 66.5 nM
- concentration at 0.5 h [1, 4]: 25.6 nM
- concentration at 0.5 h [1, 5]: 22.9 nM
- concentration at 0.5 h [1, 6]: 13.8 nM
- concentration at 1 h [1, 3]: 223 nM
- concentration at 1 h [1, 4]: 155 nM
- concentration at 1 h [1, 5]: 147 nM
- concentration at 1 h [1, 6]: 98.5 nM
- concentration at 2 h [1, 3]: 618 nM
- concentration at 2 h [1, 4]: 413 nM
- concentration at 2 h [1, 5]: 370 nM
- concentration at 2 h [1, 6]: 271 nM
- concentration at 4 h [1, 3]: 1130 nM
- concentration at 4 h [1, 4]: 624 nM
- concentration at 4 h [1, 5]: 635 nM
- concentration at 4 h [1, 6]: 379 nM
- concentration at 8 h [1, 3]: 457 nM
- concentration at 8 h [1, 4]: 248 nM
- concentration at 8 h [1, 5]: 233 nM
- concentration at 8 h [1, 6]: 90.2 nM
- concentration at 12 h [1, 3]: 162 nM
- concentration at 12 h [1, 4]: 85.9 nM
- concentration at 12 h [1, 5]: 75.3 nM
- concentration at 12 h [1, 6]: 38.9 nM
- concentration at 24 h [1, 3]: 37.4 nM
- concentration at 24 h [1, 4]: 18.3 nM
- concentration at 24 h [1, 5]: 15.3 nM
- concentration at 24 h [1, 6]: 8.5 nM
- concentration at 0 h [1, 7]: 11 nM
- concentration at 0 h [1, 8]: 8.43 nM
- concentration at 0 h [1, 9]: 8.5 nM
- concentration at 0 h [1, 10]: 6 nM
- concentration at 0.5 h [1, 7]: 76.4 nM
- concentration at 0.5 h [1, 8]: 33.3 nM
- concentration at 0.5 h [1, 9]: 30.9 nM
- concentration at 0.5 h [1, 10]: 8.9 nM
- concentration at 1 h [1, 7]: 369 nM
- concentration at 1 h [1, 8]: 166 nM
- concentration at 1 h [1, 9]: 160 nM
- concentration at 1 h [1, 10]: 42.3 nM
- concentration at 2 h [1, 7]: 1200 nM
- concentration at 2 h [1, 8]: 587 nM
- concentration at 2 h [1, 9]: 554 nM
- concentration at 2 h [1, 10]: 299 nM
- concentration at 4 h [1, 7]: 1570 nM
- concentration at 4 h [1, 8]: 1100 nM
- concentration at 4 h [1, 9]: 1010 nM
- concentration at 4 h [1, 10]: 751 nM
- concentration at 8 h [1, 7]: 926 nM
- concentration at 8 h [1, 8]: 520 nM
- concentration at 8 h [1, 9]: 485 nM
- concentration at 8 h [1, 10]: 253 nM
- concentration at 12 h [1, 7]: 261 nM
- concentration at 12 h [1, 8]: 161 nM
- concentration at 12 h [1, 9]: 142 nM
- concentration at 12 h [1, 10]: 90.4 nM
- concentration at 24 h [1, 7]: 40.1 nM
- concentration at 24 h [1, 8]: 19.3 nM
- concentration at 24 h [1, 9]: 16.1 nM
- concentration at 24 h [1, 10]: 12.1 nM
- Geometric mean ratio (fasted/fed, 90% CI) for AUC0-inf ([1]; plasma): 0.58 (0.47 to 0.71)
- Geometric mean ratio (fasted/fed, 90% CI) for Cmax ([1]; plasma): 0.55 (0.45 to 0.68)
- Cmax in the plasma, fed compared to fasted subjects (in words) [1]: much higher
- Increase in overall exposure (AUC0-inf and AUClast), fed compared with fasted state [1]: 1.7 fold
- Tmax [2, 11]: 4 h
- AUC(0-t) [2, 11]: 994 ng·h/mL
- Cmax [2, 11]: 147 ng/mL
- Tmax [2, 12]: 4 h
- AUC(0-t) [2, 12]: 1070 ng·h/mL
- Cmax [2, 12]: 152 ng/mL
- Tmax [2, 13]: 4 h
- AUC(0-t) [2, 13]: 3030 ng·h/mL
- Cmax [2, 13]: 496 ng/mL
- Tmax [2, 14]: 4 h
- AUC(0-t) [2, 14]: 3720 ng·h/mL
- Cmax [2, 14]: 516 ng/mL
- Tmax [2, 15]: 4.6 h
- AUC(0-t) [2, 15]: 4560 ng·h/mL
- Cmax [2, 15]: 597 ng/mL
- Tmax [2, 16]: 4 h
- AUC(0-t) [2, 16]: 4860 ng·h/mL
- Cmax [2, 16]: 678 ng/mL
- AUC(0-inf) ([2]; Day 1, sepiapterin 5 mg/kg once daily): 1010 ng·h/mL
- AUC(0-inf) ([2]; Day 1, sepiapterin 20 mg/kg once daily): 3080 ng·h/mL
- AUC(0-inf) ([2]; Day 1, sepiapterin 60 mg/kg once daily): 4670 ng·h/mL
